Values joined by “and” are separate entries in the source; they are usually repeats but may differ in a detail not shown here. Equal values may be shown once.
Legend:
Human platelets [1] = experiment: TXB2 production by platelets pretreated 1 hour with fatty acid/HSA; type: cell-based
Method: (§1) The following example illustrates the effect of CLA incorporation into platelet lipids on stimulating the release of endogenous AA and increasing the formation of TXB2. Platelets were prelabeled with either HSA alone or with 25 μM 9Z, 11Z-CLA/HSA for 1 hour at 37° C. After washing, the platelets were incubated for 15 minutes at room temperature, followed by the removal of the supernatants. The supernatants were then assayed for free […] content and TXB2 production. […] When the results of these three experiments are averaged, platelets treated with 9Z, 11Z-CLA stimulated […] release 414±155% and enhanced TXB2 formation 180±30%.
To compare the stimulatory effect of 9Z, 11Z-CLA on platelet TXB2 formation with other fatty acids, platelets were pretreated for 1 hour with HSA (control), or HSA complexed with either 9Z, 11Z-CLA, 9E,11E-CLA, linoleic acid (LA) or stearic acid (SA). The comparative effects of 25 μM 9Z, 11Z-CLA-, 9E, 11E-CLA-, LA- or SA-treated platelets on platelet TXB2 production is shown is FIG. 1. The values are the mean ±SD.

Human platelets [2] = experiment: Release of endogenous AA from platelets prelabeled with CLA/HSA; type: cell-based
Method: as §1

Human platelets [3] = experiment: TXB2 formation by platelets treated 2 hours with CLA isomer/HSA; type: cell-based; settings: 25 μM, 2 hours at 37° C.; for TXB2 formation Fold stimulation: mean ± SD, 4 experiments
Method: Human platelets were treated for 2 hours at 37° C. with either HSA complexed with 25 μM of the indicated CLA isomer or with HSA alone. After washing, the platelets were maintained at room temperature for 15 minutes. The supernatants were then removed, the lipid content extracted with chloroform/methanol and the residue, after TLC separation, assayed for TXB2 formation by EIA. The results shown in Table 2 were similar to those obtained with CLA-prelabeled HUVECs. […] Also shown in Table 2 is that the CLA content of the platelet lipids increased from 0.03% to 0.23% after platelet treatment with 9Z, 11Z-CLA/HSA and to 0.66% after 10E, 12Z-CLA/HSA.

IL-1β-treated HUVECs = experiment: 6-ketoPGF1a production from CLA-prelabeled HUVECs; type: cell-based, human; settings: 25 μM; for HUVEC 6-ketoPGF1a formation fold-stimulation: overnight prelabeling, 15 minutes incubation, mean ± SD, 4 experiments; for range of fold increase in endogenous 6-ketoPGF1a formation: range over four separate experiments
Method: (§2) The following example illustrates the effect of CLA incorporation on 6-ketoPGF1a production from CLA-enriched HUVECs. Following the procedure described by Bordet (1990), IL-1β-treated HUVECs were first pre-enriched during an overnight incubation with human serum albumin (HSA) complexed with either 25 […] 9Z, 11Z-CLA/HSA, 25 μM 10E, 12Z-CLA/HSA or without added fatty acid (control). […] Insignificant differences in cell viabilities (as measured by LDH release) were observed between control cells and cells pretreated with HSA/CLA. After washing, the cells were incubated for 15 minutes, followed by removal of the supernatants, which were then assayed for 6-ketoPGF1a content by EIA. In four separate experiments, control HUVECs produced and released 42-1000 pg/ml of 6-ketoPGF1a.

[4] = system: human umbilical vein endothelial cells (HUVECs); experiment: Inhibition of HUVEC 6-ketoPGF1a (PGI2) production by CLA in free fatty acid form; type: cell-based; settings: CLA in the free fatty acid form
Method: As a consequence, the patent disclosed the use of CLAs to inhibit platelet thromboxane formation or platelet aggregation. […] All of these studies relate to the use of conjugated linoleic acids in the free fatty acid form.
as §2

[5] = experiment 1, 25 μM, 1 hour at 37° C.
[6] = 25 μM, 1 hour pretreatment, versus HSA control, Example 2

SMILES	stimulation of platelet TXB2 production (FIG. 1) (Human platelets [1]; [6])	TXB2 formation Fold stimulation (Human platelets [3])	HUVEC 6-ketoPGF1a formation fold-stimulation (IL-1β-treated HUVECs)	range of fold increase in endogenous 6-ketoPGF1a formation (IL-1β-treated HUVECs)	inhibition of HUVEC 6-ketoPGF1a / prostacyclin production [4]	other results
CCCCCCC=CC=CCCCCCCCC(=O)O [9E, 11E-CLA, 9,11-octadecadienoic acid]						inhibition at 25 µM (Human platelets [1]; Homo sapiens, Platelet, 25 μM, 1 hour pretreatment, versus HSA control, Example 2, read-out: inhibition of TXB2 formation (FIG. 1)): 37%
CCCCCCC=CC=CCCCCCCCC(=O)O [9Z, 11Z-CLA, 9,11-octadecadienoic acid]	4 fold	2.3 fold and 2.3 ± 1.0 (4) fold	8 fold	1.9-23 fold	but not 9Z, 11Z-CLA isomer, was an effective inhibitor	activity at 25 µM (Human platelets [2]; Homo sapiens, Platelet, 1 hour, mean ± S.D. of three experiments, read-out: AA release, % of control, summary of experiments #1-3): 414 ± 155%; AA release (Human platelets [2]; [5]): 27 µg/mL; fold increase in TXB2 formation (Human platelets [1]; 25 μM prelabeling, relative to HSA/platelet controls): 2-4 fold and 2 fold; TXB2 Control (%) (Human platelets [1]; 25 μM, 1 hour at 37° C., single experiments No. 1-3, relative to HSA alone, listed as HSA + ZZ): 146% and 192% and 203%; activity at 25 µM (Human platelets [1]; Homo sapiens, Platelet, 25 μM, 1 hour, mean ± S.D. of three experiments, read-out: TXB2 formation, % of control, summary of experiments #1-3): 180 ± 30%; TXB2 formation (Human platelets [1]; [5]): 0.36 ng/mL; HUVEC 6-ketoPGF1a formation fold-stimulation (IL-1β-treated HUVECs; listed as 9Z, 11Z): 8.1 ± 10 fold
CCCCCC=CC=CCCCCCCCCC(=O)O [10E, 12Z-CLA, 10,12-octadecadienoic acid]		1.3 ± 0.41 (4) fold	3 fold	1.5-7.5 fold	effective inhibitor	increase in formation and release of TXB2 (Human platelets [3]): 30%; HUVEC 6-ketoPGF1a formation fold-stimulation (IL-1β-treated HUVECs; listed as 10E, 12Z): 3.5 ± 2.7 fold; HUVEC 6-ketoPGF1a formation fold-stimulation (IL-1β-treated HUVECs; listed as 10E, 12Z isomer): not quite half as effective
CCCCC/C=C\C/C=C\CCCCCCCC(=O)O [LA, linoleic acid]	did not show an appreciable effect					
CCCCCCCCCCCCCCCCCC(=O)O [SA, stearic acid, reference compound]	did not show an appreciable effect					

Reference: patent US20040229950A1, “Method and composition with conjugated linoleic acid esters” (priority 2002, published 2004)
